Source: US7153869B2, “Substituted amino acids as erythropoietin mimetics” (priority 1998, dated 2006)
Where two headings read alike, the source gives them in different places.

Molecular target: T1, EBP-Ig (N-terminal 225 amino acids of the human EPO receptor joined to an Ig heavy chain) (Homo sapiens, UniProt P19235)
T1 construct: Ig heavy chain (fusion partner); made in house; host or cells: NSO cells (secreted into conditioned media)
T1 sequence (P19235 25-250 limits assumed): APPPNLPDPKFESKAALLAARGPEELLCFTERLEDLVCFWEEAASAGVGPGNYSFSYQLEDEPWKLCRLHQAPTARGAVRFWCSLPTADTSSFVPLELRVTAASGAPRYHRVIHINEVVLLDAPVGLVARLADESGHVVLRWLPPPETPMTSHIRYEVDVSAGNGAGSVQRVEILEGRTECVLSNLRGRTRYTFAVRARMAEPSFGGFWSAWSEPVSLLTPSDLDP
Test: Inhibition of [125I]EPO binding to immobilized EBP-Ig (EPO binding protein-Ig), scintillation Flash plate competition assay
Settings: for IC30 μM (Inhibition of EPO binding to EBP-Ig): 0–500 μM test compound; for % inh @ 50 μM (Inhibition of EPO binding to EBP-Ig): 50 μM test compound, average % inhibition
From the text: The interaction of biotin and streptavidin is frequently employed to capture and effectively immobilize reagents useful in assay protocols and has been employed here as a simple method to capture and immobilize EBP-Ig. EBP-Ig is initially randomly modified with an amine reactive derivative of biotin to produce biotinylated-EBP-Ig. Use of streptavidin coated plates allows the capture of the biotinylated EBP-Ig on the surface of a scintillant impregnated coated well (Flash plates, NEN-DuPont). […] The amount of light produced was quantified to estimate the amount of ligand binding. The specific assay format was suitable for the multi-well plate capacity of a Packard TopCount Microplate Scintillation counter.
Biotinylated EBP-Ig was prepared as follows. EBP-Ig (3 mL, OD280 2.9) was exchanged into 50 mM sodium bicarbonate, pH 8.5 using a Centriprep 10 ultrafiltration device. The final volume of the exchanged protein was 1.2 mL (OD280 2.6, representing about 2 mg total protein). 10 μL of a 4 mg/ml solution of NHS-LC-Biotin (Pierce) was added and the reaction mixture placed on ice in the dark for two hours. Unreacted biotin was removed by exchange of the reaction buffer into PBS in a Centriprep 10 device and the protein reagent aliquoted and stored at −70° C.
All wells were adjusted to a final DMSO concentration of 5%. […] After all additions were made, the plate was covered with an adhesive top seal and placed in the dark at room temperature overnight. The next day all liquid was aspirated from the wells to limit analyte dependent quench of the signal, and the plates were counted on a Packard TOPCOUNT Microplate Scintillation Counter. […] Corrected total binding (CTB) was calculated as: TB−NSB=CTB. […] Table 1 lists the average % inhibition, and if determined the IC50 and IC30 values for compounds of Formula I, where the compound numbers refer to the compounds in the tables accompanying the preparative examples.

[1] = read-out: IC50, μM (Inhibition of EPO binding to EBP-Ig), 0.5 nM [125I]EPO, concentration reducing corrected total binding to 50%

SMILES	IC30 μM (Inhibition of EPO binding to EBP-Ig) (0.5 nM [125I]EPO) [µM]	EPO/EBP-Ig % inh @ 50 μM (50 μM compound, Table 12) [%]	EPO/EBP-Ig % inh @ 50 μM (50 μM compound, Table 13) [%]	other results
Cc1ccc(C(=O)Nc2cccc(CN(Cc3cccc(Oc4ccccc4)c3)C(CCC(=O)O)C(=O)NCCOCCOCCNC(=O)C(CCC(=O)O)N(Cc3cccc(NC(=O)c4ccc(C)cc4)c3)Cc3cccc(Oc4ccccc4)c3)c2)cc1 (stereo not shown) [compound 249]	7	–	–	% inh @ 50 μM (Inhibition of EPO binding to EBP-Ig) (0.5 nM [125I]EPO): 72%; EPO/EBP-Ig % inh @ 50 μM (Table 11, 50 μM): 72%; IC50 [1]: 10 µM
Cc1ccc(S(=O)(=O)Nc2cccc(CN(Cc3cccc(Oc4ccccc4)c3)C(CCC(=O)O)C(=O)NCCOCCOCCNC(=O)C(CCC(=O)O)N(Cc3cccc(NS(=O)(=O)c4ccc(C)cc4)c3)Cc3cccc(Oc4ccccc4)c3)c2)cc1 (stereo not shown) [compound 250]	7	–	–	IC50: 20 µM; inhibition at 50 µM (read-out: % inh @ 50 μM (Inhibition of EPO binding to EBP-Ig)): 78%; inhibition at 50 µM (read-out: EPO/EBP-Ig % inh @ 50 μM, Table 11, 50 μM): 78%
O=C(O)CCC(C(=O)NCCOCCOCCNC(=O)C(CCC(=O)O)N(CC=Cc1ccccc1)CC=Cc1ccccc1)N(CC=Cc1ccccc1)CC=Cc1ccccc1 (stereo not shown) [compound 251]	10	49	–	% inh @ 50 μM (Inhibition of EPO binding to EBP-Ig) (0.5 nM [125I]EPO): 49%; IC50 [1]: 45 µM
CC(C)(C)OC(=O)CC(C(=O)NCCCOCCCCOCCCNC(=O)C(CC(=O)OC(C)(C)C)N(C/C=C/c1cccc(Oc2ccc(C(C)(C)C)cc2)c1)C/C=C/c1cccc(Oc2ccc(C(C)(C)C)cc2)c1)N(C/C=C/c1cccc(Oc2ccc(C(C)(C)C)cc2)c1)C/C=C/c1cccc(Oc2ccc(C(C)(C)C)cc2)c1 (stereo not shown) [compound 252]	–	−4	–	–
CC(C)(C)OC(=O)CC(C(=O)NCCCOCCOCCOCCCNC(=O)C(CC(=O)OC(C)(C)C)N(C/C=C/c1cccc(Oc2ccc(C(C)(C)C)cc2)c1)C/C=C/c1cccc(Oc2ccc(C(C)(C)C)cc2)c1)N(C/C=C/c1cccc(Oc2ccc(C(C)(C)C)cc2)c1)C/C=C/c1cccc(Oc2ccc(C(C)(C)C)cc2)c1 (stereo not shown) [compound 253]	–	−5	–	–
CC(C)(C)OC(=O)CC(C(=O)NCCCCCCCCCCNC(=O)C(CC(=O)OC(C)(C)C)N(C/C=C/c1cccc(Oc2ccc(C(C)(C)C)cc2)c1)C/C=C/c1cccc(Oc2ccc(C(C)(C)C)cc2)c1)N(C/C=C/c1cccc(Oc2ccc(C(C)(C)C)cc2)c1)C/C=C/c1cccc(Oc2ccc(C(C)(C)C)cc2)c1 (stereo not shown) [compound 254]	–	−9	–	–
CC(C)(C)OC(=O)CC(C(=O)NCCCCCCCCCCCCNC(=O)C(CC(=O)OC(C)(C)C)N(C/C=C/c1cccc(Oc2ccc(C(C)(C)C)cc2)c1)C/C=C/c1cccc(Oc2ccc(C(C)(C)C)cc2)c1)N(C/C=C/c1cccc(Oc2ccc(C(C)(C)C)cc2)c1)C/C=C/c1cccc(Oc2ccc(C(C)(C)C)cc2)c1 (stereo not shown) [compound 255]	–	0	–	–
CC(C)(C)OC(=O)CC(C(=O)NCCOCCOCCNC(=O)C(CC(=O)OC(C)(C)C)N(C/C=C/c1cccc(Oc2ccc(C(C)(C)C)cc2)c1)C/C=C/c1cccc(Oc2ccc(C(C)(C)C)cc2)c1)N(C/C=C/c1cccc(Oc2ccc(C(C)(C)C)cc2)c1)C/C=C/c1cccc(Oc2ccc(C(C)(C)C)cc2)c1 (stereo not shown) [compound 256]	–	10	–	–
CC(C)(C)OC(=O)NCCCCC(C(=O)NCCCOCCOCCOCCCNC(=O)C(CCCCNC(=O)OC(C)(C)C)N(Cc1ccc(OCc2ccccc2)cc1)Cc1ccc(OCc2ccccc2)cc1)N(Cc1ccc(OCc2ccccc2)cc1)Cc1ccc(OCc2ccccc2)cc1 (stereo not shown) [compound 257]	–	–	−26	–
CC(C)(C)OC(=O)NCCCCC(C(=O)NCCCOCCCCOCCCNC(=O)C(CCCCNC(=O)OC(C)(C)C)N(Cc1ccc(OCc2ccccc2)cc1)Cc1ccc(OCc2ccccc2)cc1)N(Cc1ccc(OCc2ccccc2)cc1)Cc1ccc(OCc2ccccc2)cc1 (stereo not shown) [compound 258]	–	–	−24	–
CC(C)(C)OC(=O)NCCCCC(C(=O)NCCCCCCCCCCCCNC(=O)C(CCCCNC(=O)OC(C)(C)C)N(Cc1ccc(OCc2ccccc2)cc1)Cc1ccc(OCc2ccccc2)cc1)N(Cc1ccc(OCc2ccccc2)cc1)Cc1ccc(OCc2ccccc2)cc1 (stereo not shown) [compound 259]	–	–	−13	–
CC(C)(C)OC(=O)NCCCCC(C(=O)NCCOCCOCCNC(=O)C(CCCCNC(=O)OC(C)(C)C)N(Cc1ccc(OCc2ccccc2)cc1)Cc1ccc(OCc2ccccc2)cc1)N(Cc1ccc(OCc2ccccc2)cc1)Cc1ccc(OCc2ccccc2)cc1 (stereo not shown) [compound 260]	–	–	−12	–
NCCCCC(C(=O)NCCOCCOCCNC(=O)C(CCCCN)N(Cc1ccc(OCc2ccccc2)cc1)Cc1ccc(OCc2ccccc2)cc1)N(Cc1ccc(OCc2ccccc2)cc1)Cc1ccc(OCc2ccccc2)cc1 (stereo not shown) [compound 261]	1.5	–	51	% inh @ 50 μM (Inhibition of EPO binding to EBP-Ig) (0.5 nM [125I]EPO): 51%; IC50 [1]: 2 µM
